Converted amounts (≈) assume the structure as drawn. “And” between values parts separate entries of the source, which are not always exact repeats. Identical values can stand only once. Counter-ions that a name gives are not always drawn. Like-named read-outs stand apart in the source and are kept apart here.
Tests used:
[1] = system: L1210 leukemia; assay: Lymphoid Leukemia L1210, survival of tumored mice; format: in vivo, CD2F1 mice; details: for response vs control in vivo at 400 mg/kg: 400 mg/kg i.p.; for response vs control in vivo at 12.5 mg/kg: 12.5 mg/kg i.p.; for response vs control in vivo at 50 mg/kg: 50 mg/kg i.p.; for response vs control in vivo at 300 mg/kg: 300 mg/kg i.p.; for response vs control in vivo at 200 mg/kg: 200 mg/kg i.p.
Experimental: The efficacy of the compounds of this invention against the transplanted mouse tumors was evaluated in test systems currently in use at the National Cancer Institute for the detection and assessment of anticancer activity. […] J. Cancer, 17, 129-142, (1981); Venditti, J. M., Seminars in Oncology, 8 (4) (1981); Goldin, A. and J. M. Venditti, in Recent Results in Cancer Research, 70, S. K. Carter and Y. Sakurai, Eds., Springer-Verlag, Berlin/Heidelberg, 1980].
The animals used in this test were CD2 F1 mice, all males weighing a minimum of 18 g and all within a 4 g weight range at the start of the test. The test group consisted of six mice. The tumor was implanted in each of the test mice by the intraperitoneal injection of 0.1 ml of diluted ascitic fluid containing 10^5 cells drawn from a mouse with L1210 leukemia. The test compounds were suspended in hydroxypropylcellulose or saline with Tween® 80 surfactant or dissolved in saline and injected intraperitoneally, at various doses, once daily for nine consecutive days starting on day one relative to the day of tumor inoculation (day 0). The control mice received injections of saline or hydroxypropylcellulose vehicle only. The mice were weighed and survivors were recorded on a regular basis for 30 days. The median survival time and the ratio of the median survival time for the treated (T) and control (C) mice was calculated. […] Drug effectiveness was assessed on the basis of the survival time. Results were expressed as a percentage of the control survival time (Median Survival Time: T/C ×100%). The criterion for effectiveness was determined by: T/C×100≥125 percent.

[2] = system: human colon carcinoma cells HCT-15; assay: Human colon tumor test in vitro, HCT-15 cell growth inhibition; format: cell-based; details: for in vitro HCT-15 ID50 (50 percent inhibition of number of doublings): 4320 min; for IC50: Homo sapiens, HCT-15, 72 h, read-out: in vitro HCT-15 ID50 (50 percent inhibition of number of doublings)
Experimental: The compound of this invention were also tested for their ability to inhibit the growth of human colon carcinoma cells in vitro.
The human colon carcinoma cells, designated HCT-15, were derived from a specimen of an adenocarcinoma of human colon removed during surgery. The cells were grown in Roswell Park Medical Institute (RPMI) Medium 1640 supplemented with 10% heat inactivated fetal calf serum, penicillin (100 units/ml), streptomycin (100 μg/ml), gentamicin (20 μg/ml), fungizone (25 μg/ml), 0.075 percent sodium bicarbonate, […] 4-(2-hydroxyethyl)-1-piperazineethanesulfonic acid and […] N-tris(hydroxymethyl)methylglycine. […] On day 1 cells from sample dishes were harvested using trypsin (0.25%) treatment and counted with a hemocytometer to determine the number of cells per dish at the time of the addition of the compounds. Compounds of this invention were added in varying concentrations to other cultures. On day 4, treated and control cultures were harvested by trypsin treatment and the number of cells was determined. The number of doublings for the control cells was determined from the cell numbers on days 1 and 4. The ID50, the concentration of compound required to inhibit by 50 percent the number of doublings, was then calculated from the dose-response curve in which cell numbers were plotted on log-log paper against compound concentrations in micrograms per ml.

[3] = Mus musculus, L1210, ip, 720 h, read-out: L1210 Leukemia % T/C (median survival time)
[4] = HCT-15 cells, compound day 1 to day 4
[5] = Mus musculus, L1210, ip, 720 h, 100 mg/kg i.p., read-out: L1210 Leukemia % T/C (median survival time)
[6] = Mus musculus, L1210, ip, 720 h, 25 mg/kg i.p., read-out: L1210 Leukemia % T/C (median survival time)
[7] = Mus musculus, L1210, ip, 720 h, nonoptimal Q1DX9 instead of Q3DX9, read-out: L1210 Leukemia % T/C (median survival time)

## COc1ccc(-c2ccc(-c3nc4ccc(Cl)cc4c(C(=O)O)c3C)cc2)cc1 [Example 24]
[1]; [3]
  response vs control in vivo at 400 mg/kg: 154%
[2]; [4]
  in vitro HCT-15 ID50 (50 percent inhibition of number of doublings): 0.28 µg/mL

## Cc1c(-c2ccc(-c3ccc(F)cc3F)cc2)nc2ccc(F)cc2c1C(=O)O [Example 188]
[1]; [3]
  response vs control in vivo at 12.5 mg/kg: 187%
[2]; [4]
  IC50: < 0.01 µg/mL

## Cc1c(-c2ccc(-c3ccccc3F)cc2)nc2ccc(F)cc2c1C(=O)OCCN(C)C [Example 198, [6-Fluoro-2-(2'-fluoro-1,1'-biphenyl-4-yl)3-methyl-[(2-dimethylamino)ethyl]ester-4-quinolinecarboxylic acid] hydrochloride]
[1]; [5]
  response vs control in vivo at 100 mg/kg: 178%
[2]; HCT-15 cells, compound day 1 to day 4, hydrochloride
  in vitro HCT-15 ID50 (50 percent inhibition of number of doublings): < 10^-3 μg/ml

## Cc1c(-c2ccc(-c3ccccc3)cc2)nc2cc(Cl)cc(Cl)c2c1C(=O)O [Example 82]
[1]; [5]
  response vs control in vivo at 100 mg/kg: 144%
[2]; [4]
  IC50: > 1 µg/mL

## COc1cccc2c1C(=O)c1c(O)c3c(c(O)c1C2=O)C[C@@](O)(C(=O)CO)C[C@@H]3O[C@H]1C[C@H](N)[C@H](O)[C@H](C)O1 [Adriamycin, reference compound]
[1]; [3]
  response vs control in vivo at 2 mg/kg: 183%
[2]
  IC50: 0.01 µg/mL (≈ 0.0184 µM)

## Cc1c(-c2ccc(-c3ccccc3F)cc2)nc2ccc(F)cc2c1C(=O)O [Example 28, 2-(2'-Fluoro-1,1'-biphenyl-4-yl)-6-fluoro-3-methyl4-quinolinecarboxylic acid]
[1]; Mus musculus, L1210, ip, 720 h, 18 mg/kg i.p., read-out: L1210 Leukemia % T/C (median survival time)
  response vs control in vivo at 18 mg/kg: 174%
[2]; [4]
  IC50: < 0.5 µg/mL

## Cc1c(-c2ccc(-c3ccccc3)cc2)nc2ccc(Cl)cc2c1C(=O)O [Example 19]
[1]; [6]
  response vs control in vivo at 25 mg/kg: 234%
[2]; [4]
  IC50: < 0.5 µg/mL

## Cc1c(-c2ccc(OCc3ccccc3)cc2)nc2ccc(F)cc2c1C(=O)O [Example 16]
[1]; [3]
  response vs control in vivo at 400 mg/kg: 190%
[2]; [4]
  IC50: 1 µg/mL (≈ 2.58 µM)

## CCc1ccc(-c2ccc(-c3nc4ccc(F)cc4c(C(=O)O)c3C)cc2)cc1 [Example 40]
[1]; [5]
  response vs control in vivo at 100 mg/kg: 157%
[2]; [4]
  IC50: > 1 µg/mL

## Cc1c(-c2ccc(C3CCCCC3)cc2)nc2ccc(Cl)cc2c1C(=O)O [Example 93]
[1]; [7]
  response vs control in vivo at 50 mg/kg: 101%
[2]; [4]
  in vitro HCT-15 ID50 (50 percent inhibition of number of doublings): 0.06 µg/mL and 0.04 µg/mL

## O=C(O)c1cc(-c2ccc(C3CCCCC3)cc2)nc2ccc(F)cc12 [Example 95]
[1]; Mus musculus, L1210, ip, 720 h, 100 mg/kg i.p., nonoptimal Q1DX9 instead of Q3DX9, read-out: L1210 Leukemia % T/C (median survival time)
  response vs control in vivo at 100 mg/kg: 108%
[2]; [4]
  in vitro HCT-15 ID50 (50 percent inhibition of number of doublings): 0.04 µg/mL

## Cc1c(-c2ccc(C3CCCCC3)cc2)nc2ccc(Br)cc2c1C(=O)O [Example 45]
[1]; [3]
  response vs control in vivo at 400 mg/kg: 160%
[2]; [4]
  in vitro HCT-15 ID50 (50 percent inhibition of number of doublings): 0.13 µg/mL

## Cc1c(-c2ccc(-c3ccc(Br)cc3)cc2)nc2ccc(F)cc2c1C(=O)O [Example 12]
[1]; [3]
  response vs control in vivo at 50 mg/kg: 261%
[2]; [4]
  IC50: 1 µg/mL (≈ 2.29 µM)

## Cc1ccc2nc(-c3ccc(-c4ccccc4)cc3)c(C)c(C(=O)O)c2c1 [Example 14]
[1]; [3]
  response vs control in vivo at 50 mg/kg: 195%
[2]; [4]
  IC50: 0.38 µg/mL (≈ 1.08 µM)

## Cc1c(-c2ccc(Oc3ccccc3)cc2)nc2ccc(F)cc2c1C(=O)O [Example 11]
[1]; [6]
  response vs control in vivo at 25 mg/kg: 176%
[2]; [4]
  in vitro HCT-15 ID50 (50 percent inhibition of number of doublings): 0.19 µg/mL

## Cc1c(-c2ccc(SCc3ccccc3)cc2)nc2ccc(F)cc2c1C(=O)O [Example 26]
[1]; [3]
  response vs control in vivo at 300 mg/kg: 136%
[2]; [4]
  IC50: < 0.5 µg/mL

## Cc1ccc2nc(-c3ccc(C4CCCCC4)cc3)c(C)c(C(=O)O)c2c1 [Example 6]
[1]; [3]
  response vs control in vivo at 400 mg/kg: 162%
[2]; [4]
  in vitro HCT-15 ID50 (50 percent inhibition of number of doublings): 0.24 µg/mL

## Cc1c(-c2ccc(Oc3ccccc3)cc2)nc2ccc(C(F)(F)F)cc2c1C(=O)O [Example 57]
[1]; Mus musculus, L1210, ip, 720 h, 150 mg/kg i.p., read-out: L1210 Leukemia % T/C (median survival time)
  response vs control in vivo at 150 mg/kg: 197%
[2]; [4]
  IC50: < 0.5 µg/mL

## Cc1c(-c2ccc(-c3ccc(Br)cc3)cc2)nc2ccc(F)cc2c1C(=O)O [Example 102]
[1]; [3]
  response vs control in vivo at 12.5 mg/kg: 164%
[2]; [4]
  in vitro HCT-15 ID50 (50 percent inhibition of number of doublings): 1.0 µg/mL and 1.9 µg/mL

## Cc1c(-c2ccc(Oc3ccccc3)cc2)nc2ccc(Br)cc2c1C(=O)O [Example 53]
[1]; Mus musculus, L1210, ip, 720 h, 75 mg/kg i.p., read-out: L1210 Leukemia % T/C (median survival time)
  response vs control in vivo at 75 mg/kg: 136%
[2]; [4]
  IC50: < 0.5 µg/mL

## Cc1cc2c(C(=O)O)c(C)c(-c3ccc(-c4ccccc4)cc3)nc2cc1Cl [Example 148]
[1]; Mus musculus, L1210, ip, 720 h, 37.5 mg/kg i.p., nonoptimal Q1DX9 instead of Q3DX9, read-out: L1210 Leukemia % T/C (median survival time)
  response vs control in vivo at 37.5 mg/kg: 102%
[2]; [4]
  in vitro HCT-15 ID50 (50 percent inhibition of number of doublings): > 5.00 µg/mL

## Cc1c(-c2ccc(-c3ccccc3)c(F)c2)nc2ccc(F)cc2c1C(=O)O [Example 207]
[1]; 25 mg/kg i.p.
  L1210 Leukemia % T/C (median survival time): 154%
[2]; [4]
  IC50: 0.02 µg/mL (≈ 0.0533 µM)

## Cc1c(-c2ccc(SC(C)C)cc2)nc2ccc(F)cc2c1C(=O)O [Example 103]
[1]; [7]
  response vs control in vivo at 200 mg/kg: 108%
[2]; [4]
  in vitro HCT-15 ID50 (50 percent inhibition of number of doublings): 0.17 µg/mL

## Cc1ccc(-c2ccc(-c3nc4ccc(F)cc4c(C(=O)O)c3C)cc2)cc1 [Example 30]
[1]; [3]
  response vs control in vivo at 300 mg/kg: 291%
[2]; [4]
  IC50: < 0.5 µg/mL

## Cc1c(-c2ccc(-c3ccccc3)cc2)nc2ccc(Cl)cc2c1C(=O)O [Example 171]
[1]; 100 mg/kg i.p.
  L1210 Leukemia % T/C (median survival time): 164%
[2]; [4]
  in vitro HCT-15 ID50 (50 percent inhibition of number of doublings): < 0.50 µg/mL

## CCc1c(-c2ccc(C3CCCCC3)cc2)nc2ccc(C)cc2c1C(=O)O [Example 15]
[1]; [3]
  response vs control in vivo at 200 mg/kg: 158%
[2]; [4]
  IC50: 0.28 µg/mL (≈ 0.75 µM)

## O=C(O)c1cc(-c2ccc(C3CCCCC3)cc2)nc2ccc(Cl)cc12 [Example 4]
[1]; [3]
  response vs control in vivo at 200 mg/kg: 128%
[2]; [4]
  IC50: 0.48 µg/mL (≈ 1.31 µM)

## Cc1c(-c2ccc(Oc3ccc(Cl)cc3)cc2)nc2ccc(F)cc2c1C(=O)O [Example 119]
[1]; 18 mg/kg i.p.
  L1210 Leukemia % T/C (median survival time): 170%
[2]; [4]
  in vitro HCT-15 ID50 (50 percent inhibition of number of doublings): < 0.50 µg/mL

## Cc1c(-c2ccc(-c3ccccc3F)cc2)nc2ccc(F)cc2c1C(=O)OCCN(C)C [Example 197, 6-Fluoro-2-(2'-fluoro-1,1'-biphenyl-4-yl)-3-methyl-[(2dimethylamino)ethyl]ester-4-quinolinecarboxylic acid]
[1]; [3]
  response vs control in vivo at 50 mg/kg: 179%
[2]; [4]
  in vitro HCT-15 ID50 (50 percent inhibition of number of doublings): < 0.01 µg/mL
